{"source": "patent US20080188503A1", "about": "“New Compounds II” (AstraZenaca AB, priority 2006, published 2008)", "target": "T1, recombinant human GSK3β (Homo sapiens, UniProt P49841)", "T1 construct": "purchased Dundee University, UK", "T1 sequence (P49841 whole entry)": "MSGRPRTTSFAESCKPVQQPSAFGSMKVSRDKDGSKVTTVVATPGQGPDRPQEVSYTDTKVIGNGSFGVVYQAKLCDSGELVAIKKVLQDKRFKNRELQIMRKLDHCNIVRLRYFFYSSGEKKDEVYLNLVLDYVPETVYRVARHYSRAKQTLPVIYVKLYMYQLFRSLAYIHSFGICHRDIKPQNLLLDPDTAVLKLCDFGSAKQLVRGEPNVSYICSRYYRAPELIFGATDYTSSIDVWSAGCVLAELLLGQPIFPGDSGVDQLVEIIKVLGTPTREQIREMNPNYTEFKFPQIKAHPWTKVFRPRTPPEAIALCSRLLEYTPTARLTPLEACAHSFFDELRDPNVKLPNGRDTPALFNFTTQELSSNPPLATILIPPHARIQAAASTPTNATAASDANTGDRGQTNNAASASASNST", "assay": "GSK3β Scintillation Proximity Assay (ATP competition)", "assay_type": "biochemical", "details": "recombinant human GSK3β SPA; 1 μM ATP, 1 μM biotinylated peptide substrate; Ki calculated with Km of ATP 20 μM", "experimental": "Determination of ATP Competition in Scintillation Proximity GSK3β Assay.\nGSK3β Scintillation Proximity Assay.\nThe competition experiments were carried out in duplicate with 10 different concentrations of the inhibitors in clear-bottom microtiter plates (Wallac, Finland). A biotinylated peptide substrate, Biotin-Ala-Ala-Glu-Glu-Leu-Asp-Ser-Arg-Ala-Gly-Ser(PO3H2)-Pro-Gln-Leu (AstraZeneca, Lund), was added at a final concentration of 1 μM in an assay buffer containing 1 mU recombinant human GSK3β (Dundee University, UK), 12 mM morpholinepropanesulfonic acid (MOPS), pH 7.0, 0.3 mM EDTA, 0.01% β-mercaptoethanol, 0.004% Brij 35 (a […] detergent), 0.5% glycerol and 0.5 μg BSA/25 μl. The reaction was initiated by the addition of 0.04 μCi [γ-^33P]ATP (Amersham, UK) and unlabelled ATP at a final concentration of 1 μM and assay volume of 25 μl. After incubation for 20 minutes at room temperature, each reaction was terminated by the addition of 25 μl stop solution containing 5 mM EDTA, 50 μM ATP, 0.1% Triton X-100 and 0.25 mg streptavidin coated Scintillation Proximity Assay (SPA) beads (Amersham, UK). After 6 hours the radioactivity was determined in a liquid scintillation counter (1450 MicroBeta Trilux, Wallac). The inhibition curves were analysed by non-linear regression using GraphPad Prism, USA. The Km value of ATP for GSK3β, used to calculate the inhibition constants (Ki) of the various compounds, was 20 μM.", "note": "pKi: −log10 of the molar value."}
{"smiles": "Cc1ncc(-c2nc(NC3CCOCC3)ncc2F)n1C1CCOCC1", "note": "[Example 34, 5-Fluoro-4-[2-methyl-1-(tetrahydro-2H-pyran-4-yl)-1H-imidazol-5-yl]-N-(tetrahydro-2H-pyran-4-yl)pyrimidin-2-amine]", "values": [{"measurement": "pKi", "result": 7.06}]}
{"smiles": "CC(=O)N1CCC(Nc2ncc(F)c(-c3cnc(C)n3C3CCOCC3)n2)CC1", "note": "[Example 35, N-(1-Acetylpiperidin-4-yl)-5-fluoro-4-[2-methyl-1-(tetrahydro-2H-pyran-4-yl)-1H-imidazol-5-yl]pyrimidin-2-amine]", "values": [{"measurement": "pKi", "result": 6.92}]}
{"smiles": "Cc1ncc(-c2nc(NC3CCCCC3)ncc2F)n1C1CCOCC1", "note": "[Example 36, N-Cyclohexyl-5-fluoro-4-[2-methyl-1-(tetrahydro-2H-pyran-4-yl)-1H-imidazol-5-yl]pyrimidin-2-amine]", "values": [{"measurement": "pKi", "result": 7.80}]}
{"smiles": "Cc1ncc(-c2nc(NC3CCN(Cc4ccccc4)CC3)ncc2F)n1C1CCOCC1", "note": "[Example 37, N-(1-Benzylpiperidin-4-yl)-5-fluoro-4-[2-methyl-1-(tetrahydro-2H-pyran-4-yl)-1H-imidazol-5-yl]pyrimidin-2-amine]", "values": [{"measurement": "pKi", "result": 6.85}]}
{"smiles": "Cc1ncc(-c2nc(NC3CCN(C(=O)c4ccccc4)CC3)ncc2F)n1C1CCOCC1", "note": "[Example 38, N-(1-Benzoylpiperidin-4-yl)-5-fluoro-4-[2-methyl-1-(tetrahydro-2H-pyran-4-yl)-1H-imidazol-5-yl]pyrimidin-2-amine]", "values": [{"measurement": "pKi", "result": 7.24}]}
{"smiles": "Cc1ncc(-c2nc(NC3CCN(C(=O)Cc4ccccc4)CC3)ncc2F)n1C1CCOCC1", "note": "[Example 39, 5-Fluoro-4-[2-methyl-1-(tetrahydro-2H-pyran-4-yl)-1H-imidazol-5-yl]-N-[1-(phenylacetyl)piperidin-4-yl]pyrimidin-2-amine]", "values": [{"measurement": "pKi", "result": 7.44}]}
{"smiles": "Cc1ncc(-c2nc(NC3CCN(C(=O)OCc4ccccc4)CC3)ncc2F)n1C1CCOCC1", "note": "[Example 40, Benzyl 4-({5-fluoro-4-[2-methyl-1-(tetrahydro-2H-pyran-4-yl)-1H-imidazol-5-yl]pyrimidin-2-yl}amino)piperidine-1-carboxylate]", "values": [{"measurement": "pKi", "result": 7.51}]}
{"smiles": "Cc1ncc(-c2nc(NC3CCN(S(C)(=O)=O)CC3)ncc2F)n1C1CCOCC1", "note": "[Example 41, 5-Fluoro-N-[1-(methylsulfonyl)piperidin-4-yl]-4-[2-methyl-1-(tetrahydro-2H-pyran-4-yl)-1H-imidazol-5-yl]pyrimidin-2-amine]", "values": [{"measurement": "pKi", "result": 6.92}]}
{"smiles": "Cc1ncc(-c2nc(NC3CCN(C(=O)C(F)(F)F)CC3)ncc2F)n1C1CCOCC1", "note": "[Example 42, 5-Fluoro-4-[2-methyl-1-(tetrahydro-2H-pyran-4-yl)-1H-imidazol-5-yl]-N-[1-(trifluoroacetyl)piperidin-4-yl]pyrimidin-2-amine]", "values": [{"measurement": "pKi", "result": 7.04}]}
{"smiles": "Cc1ncc(-c2nc(NC3CCN(S(=O)(=O)c4ccccc4)CC3)ncc2F)n1C1CCOCC1", "note": "[Example 43, 5-Fluoro-4-[2-methyl-1-(tetrahydro-2H-pyran-4-yl)-1H-imidazol-5-yl]-N-[1-(phenylsulfonyl)piperidin-4-yl]pyrimidin-2-amine]", "values": [{"measurement": "pKi", "result": 7.28}]}
{"smiles": "Cc1ncc(-c2nc(NC3CCN(S(=O)(=O)Cc4ccccc4)CC3)ncc2F)n1C1CCOCC1", "note": "[Example 44, N-[1-(Benzylsulfonyl)piperidin-4-yl]-5-fluoro-4-[2-methyl-1-(tetrahydro-2H-pyran-4-yl)-1H-imidazol-5-yl]pyrimidin-2-amine]", "values": [{"measurement": "pKi", "result": 7.10}]}
